“Also recorded” adds a separate entry of the source.
Assays:
GIRK1/4 = target: T1, GIRK1/4 (Homo sapiens, UniProt P48544+P48549); test: two-electrode voltage clamp (TEVC) in Xenopus oocytes expressing GIRK1/4 wild-type; format: cell-based; set-up: expressed in transfected cells; host or cells: Xenopus laevis oocytes (cRNA injection); details: for activation of GIRK1/4 (in words): concentration-response, FIGS. 34A-34I; for Emax: ML297 considered 100%, read-out: EMAX at GIRK1/4, % relative to ML297; for EC50: TEVC, Xenopus oocytes, GIRK1/4 wild-type; for EMAX at GIRK1/4: current normalized to basal current; for modulation of GIRK1/4 channels (in words): Examples 5 and 6, Xenopus oocytes
T1 sequence (P48549 1-501): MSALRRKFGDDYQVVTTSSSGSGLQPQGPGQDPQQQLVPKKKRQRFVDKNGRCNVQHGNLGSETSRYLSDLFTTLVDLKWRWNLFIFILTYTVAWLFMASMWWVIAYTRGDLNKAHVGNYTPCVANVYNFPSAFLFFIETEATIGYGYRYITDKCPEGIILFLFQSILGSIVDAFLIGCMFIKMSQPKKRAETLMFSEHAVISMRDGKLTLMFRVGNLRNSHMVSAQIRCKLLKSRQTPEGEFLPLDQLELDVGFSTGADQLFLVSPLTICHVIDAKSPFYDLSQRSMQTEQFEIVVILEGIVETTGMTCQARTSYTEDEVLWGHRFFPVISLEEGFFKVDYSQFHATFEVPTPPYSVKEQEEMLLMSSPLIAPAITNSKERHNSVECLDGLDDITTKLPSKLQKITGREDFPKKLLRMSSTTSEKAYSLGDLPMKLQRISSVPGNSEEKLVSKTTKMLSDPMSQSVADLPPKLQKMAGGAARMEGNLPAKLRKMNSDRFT
T1 sequence (P48544 1-419): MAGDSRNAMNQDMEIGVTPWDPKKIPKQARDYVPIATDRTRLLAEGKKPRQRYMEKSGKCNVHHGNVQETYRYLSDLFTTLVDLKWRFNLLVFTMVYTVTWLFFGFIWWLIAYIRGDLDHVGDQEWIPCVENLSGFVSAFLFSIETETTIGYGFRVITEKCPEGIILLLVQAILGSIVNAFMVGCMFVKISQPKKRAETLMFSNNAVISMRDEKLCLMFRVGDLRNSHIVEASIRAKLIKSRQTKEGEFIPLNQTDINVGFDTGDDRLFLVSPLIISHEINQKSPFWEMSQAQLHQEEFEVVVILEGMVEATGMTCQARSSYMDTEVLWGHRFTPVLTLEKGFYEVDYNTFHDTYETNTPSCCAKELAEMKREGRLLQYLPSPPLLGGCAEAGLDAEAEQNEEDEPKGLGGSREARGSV
Description: (§1) Molecular biology: For Xenopus oocyte expression, human GIRK1 and human GIRK4 cDNAs were subcloned into pGEMHE. For mammalian expression, human GIRK1 and human GIRK4 cDNAs were subcloned into pcDNA3 and pcDNA3.1/V5-His B, respectively (Invitrogen). Mouse GIRK2 cDNA was subcloned in the dual-function vector, pXoom. Point mutations were introduced using a standard Pfu-based mutagenesis technique according to the QuikChange protocol (Agilent). Mutations were verified by sequencing.
(§2) Xenopus laevis oocyte expression: Plasmid DNAs of GIRK channel subunits were linearized prior to in vitro transcription. Capped RNAs were transcribed using mMESSAGE mMACHINE T7 Transcription Kit (Thermo Fisher Scientific). Xenopus oocytes were surgically extracted, dissociated and defolliculated by collagenase treatment, and microinjected with 50 nl of a water solution containing 1 ng of each GIRK subunit RNA. For TEVC experiments, oocytes were kept 2 days at 17° C. before recording, while for NPo experiments oocytes were incubated for up to 4 days at 17° C.
(§3) Xenopus laevis oocyte expression: All cDNA constructs in the pGEMHE vector were linearized using the NheI restriction enzyme, whereas those in the pXoom vector were linearized using the XhoI restriction enzyme. Linearized cDNAs were in vitro-transcribed using the mMessage mMachine® kit (Ambion) kit. Complementary RNA (cRNA) concentrations were quantified by optical density. Xenopus oocytes were surgically extracted, dissociated, and defolliculated by collagenase treatment and microinjected with 50 nl of the desired cRNAs diluted in RNAase-free water. The use of Xenopus laevis frogs for this study was approved by the Institutional Animal Care and Use Committee (IACUC) at Northeastern University. All constructs used in this study were injected to achieve between 1-2 ng per oocyte depending on the channel. Oocytes were incubated for 2 days at 18° C.
(§4) Electrophysiology of oocytes: Whole-oocyte currents were measured by conventional two-electrode voltage clamp (TEVC) with a GeneClamp 500 amplifier (Axon Instruments). […] Barium-sensitive currents were normalized to average basal current in the vehicle solutions. The HK solution contained the following: 96 mM KCl, 1 mM NaCl, 1 mM MgCl2, 5 mM KOH/HEPES, pH 7.4. The barium solution consisted of HK+10 mM BaCl2. Five to ten oocytes from the same batch (same frog) were recorded for each group, and the experiments were repeated in at least four batches. Data acquisition and analysis were carried out using pClamp9 (Molecular Devices) and OriginPro (Microcal) software.

GIRK1/2 = target: T2, GIRK1/2 (UniProt P48542+P48549); test: two-electrode voltage clamp (TEVC) in Xenopus oocytes expressing GIRK1/2 wild-type; format: cell-based, human GIRK1, mouse GIRK2; set-up: expressed in transfected cells; host or cells: Xenopus laevis oocytes (cRNA injection); details: for Emax: ML297 considered 100%, read-out: EMAX at GIRK1/2, % relative to ML297; for selectivity for GIRK1/2 over GIRK1/4 (in words) / EC50: TEVC; for selectivity for GIRK1/2 over GIRK1/4 (in words): GIRK1/2 versus GIRK1/4; for EC50: Xenopus oocytes, GIRK1/2 wild-type; for potency/efficacy compared to GAT1508 (in words) / activation of GIRK1/2 (in words): concentration-response, FIGS. 34A-34I; for EMAX at GIRK1/2: current normalized to basal current
T2 sequence (P48549 1-501): T1 sequence (P48549 1-501)
T2 sequence (P48542 1-425): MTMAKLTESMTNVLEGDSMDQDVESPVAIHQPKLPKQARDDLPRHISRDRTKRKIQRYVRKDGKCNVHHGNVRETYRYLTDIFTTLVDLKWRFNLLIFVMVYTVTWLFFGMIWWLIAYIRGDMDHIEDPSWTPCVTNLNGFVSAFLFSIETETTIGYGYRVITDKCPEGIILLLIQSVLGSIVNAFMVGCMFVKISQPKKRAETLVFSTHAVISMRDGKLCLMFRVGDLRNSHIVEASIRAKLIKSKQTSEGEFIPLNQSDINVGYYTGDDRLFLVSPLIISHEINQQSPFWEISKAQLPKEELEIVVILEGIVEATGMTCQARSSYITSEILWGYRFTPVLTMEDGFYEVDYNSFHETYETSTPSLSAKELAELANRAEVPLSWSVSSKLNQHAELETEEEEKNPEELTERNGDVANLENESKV
Description: as §1, §2, §3, §4

[1] = tested on: BLA neurons (GIRK currents); test: whole-cell patch-clamp in acute brain slices, basolateral amygdala (BLA) neurons; format: cell-based, rat; details: 100 ms puff of 100 μM, compared to baseline
Experimental: Electrophysiological recordings from brain slices containing basolateral amygdala (BLA) neurons: Electrophysiology was performed using 150-200 g male Sprague-Dawley rats (Harlan/Envigo, Indianapolis, IN). Rats were group housed in plastic cages in standard housing conditions with ad libitum access to food and water with 12:12 light/dark cycle (lights on at 07:00 h). All experiments were conducted in accordance with the Guide for the Care and Use of Laboratory Animals (Institute for Laboratory Animal Research, The National Academies Press) and the guidelines of the IUPUI Institutional Animal Care and Use Committee. Rats were anesthetized with isoflurane and immediately decapitated. Brains were then rapidly removed, placed in ice-cold oxygenated artificial cerebrospinal fluid solution (ACSF) and coronal slices ([…]) were prepared containing the amygdala. Slices were incubated at 31° C. for 30 min and then returned to room temperature until recording. [ACSF solution in mM: 130 NaCl; 3.5 KCl; 1.1 KH2PO4; 1.3 MgCl2; 2.5 CaCl2; 30 NaHCO3; 10 glucose, 315 mOsm, 7.4 pH]. Cells were identified for recording at 40× magnification using Scientifica Slicescope microscope under DIC illumination (Scientifica, Uckfield, UK). ACSF was warmed to 30° C. and perfused at a rate of 2-3 ml/min during recordings. Compounds were added to ACSF at desired concentrations. Whole-cell patch-clamp recordings were obtained using standard techniques. Borosilicate glass electrodes (WPI, Sarasota, FL) (resistance 3-6 MΩ) were prepared and used for both recording and baclofen application. [Recording internal solution in mM: 140 K-gluconate; 2 KCl; 3 MgCl2; 10 HEPES; 5 Phosphocreatinine; 2 K-ATP; 0.2 Na-GTP, 290 mOsm, 7.4 pH]. In voltage-clamp mode, the cell was adjusted to −50 mV at the beginning of all experiments and 5 min stable baseline was established before treatment. Picospritzer II (Parker Hannifin, Hollis, NH) was utilized for local application of 100 μM GABA-B agonist baclofen in ACSF to activate GIRKs. Baseline and baclofen-induced currents were averaged from three responses per cell and analyzed using ClampFit software (Molecular Devices, San Jose, CA). […] Several control cells were subjected to baclofen at 2 min intervals for 30 min and consistent responses were observed, thus ruling out time-dependent effects.
The inventors employed whole-cell patch-clamp recording in acute brain slices to examine the effect of GAT1508. The inventors utilized brain slices that included the basolateral amygdala (BLA), a limbic structure that has been extensively described to coordinate the acquisition and expression of fear memories. […] Next, the inventors examined the response of BLA neurons to baclofen, a GABAB-receptor agonist that induces GIRK-mediated potassium currents. […]

Row | Structure (SMILES) | Emax (GIRK1/2) [%] | selectivity for GIRK1/2 over GIRK1/4 (in words) (GIRK1/2) | EC50 (GIRK1/2) [µM] | potency/efficacy compared to GAT1508 (in words) (GIRK1/2) | EMAX at GIRK1/2 (GIRK1/2) | Emax (GIRK1/4) [%] | EC50 (GIRK1/4) [µM] | EMAX at GIRK1/4 (GIRK1/4) | activation of GIRK1/4 (in words) (GIRK1/4) | activation of GIRK1/2 (in words) (GIRK1/2) | also measured
1 | Cc1cc(NC(=O)Nc2ccc(Cl)s2)n(-c2ccccc2)n1 [GAT1501, 1-(5-chlorothiophen-2-yl)-3-(3-methyl-1-phenyl-1H-pyrazol-5-yl)urea] | 96 | retained some selectivity | 4.05 ± 0.14 | less potent than GAT1508 for GIRK1/2 | 2.797±0.18 |  |  |  | did not show activation of GIRK1/4 at concentrations less than 20 μM; also recorded: negligible |  | 
2 | Cc1nn(-c2ccccc2)c(NC(=O)Nc2ccc(F)c(F)c2)c1Br [GAT1528] |  |  |  |  |  |  |  |  |  |  | modulation of GIRK1/4 channels (in words) (GIRK1/4): selective for GIRK1/4 inhibition against GIRK1/2 channel activity; modulation of GIRK1/2 channels (in words) (GIRK1/2; Examples 5 and 6, Xenopus oocytes): no effect on basal activity
3 | Cc1cc(NC(=O)N/C=C/c2ccccc2)n(-c2ccccc2)n1 [GAT1537] |  |  |  |  |  |  |  |  |  |  | modulation of GIRK1/4 channels (in words) (GIRK1/4): little or no effect
4 | Cc1cc(NC(=O)Nc2sccc2Br)n(-c2ccccc2)n1 [GAT1570, 1-(3-bromothiophen-2-yl)-3-(3-methyl-1-phenyl-1H-pyrazol-5-yl)urea] |  |  |  |  |  |  |  |  | much poorer activators; also recorded: negligible | much poorer activators; also recorded: negligible | 
5 | Cc1cc(NC(=O)Nc2ccc(I)s2)n(-c2ccccc2)n1 [GAT1574, 1-(5-iodothiophen-2-yl)-3-(3-methyl-1-phenyl-1H-pyrazol-5-yl)urea] |  |  |  |  |  |  |  |  | poorer activator than the bromine analog; also recorded: negligible | poorer activator than the bromine analog; also recorded: negligible | 
6 | Cc1cc(NC(=O)Nc2ccc(F)s2)n(-c2ccccc2)n1 [GAT1575, 1-(5-fluorothiophen-2-yl)-3-(3-methyl-1-phenyl-1H-pyrazol-5-yl)urea] | 210 | less selective between GIRK1/2 and GIRK1/4 than GAT1508 | 9.39 ± 0.12 | highly efficacious but much less potent than GAT1508 | 4.92±0.49 | 192 | 11.2 ± 0.25 | 2.16±0.32 |  |  | 
7 | NCC(CC(=O)O)c1ccc(Cl)cc1 (stereo not drawn) [baclofen, reference compound] |  |  |  |  |  |  |  |  |  |  | current response of BLA neurons (in words) [1]: induced a significant outward current

Further lines, with some results ahead:

Row | Emax (GIRK1/2) [%] | selectivity for GIRK1/2 over GIRK1/4 (in words) (GIRK1/2) | EC50 (GIRK1/2) [µM] | potency/efficacy compared to GAT1508 (in words) (GIRK1/2) | EMAX at GIRK1/2 (GIRK1/2) | Emax (GIRK1/4) [%] | EC50 (GIRK1/4) [µM] | EMAX at GIRK1/4 (GIRK1/4) | Structure (SMILES) | activation of GIRK1/4 (in words) (GIRK1/4) | activation of GIRK1/2 (in words) (GIRK1/2) | also measured
8 | 91 |  | 4.41 ± 0.15 |  | 2.70±0.20 | 104 | 3.13 ± 0.24 | 1.63±0.09 | Cc1cc(NC(=O)Nc2cc(Br)cs2)n(-c2ccccc2)n1 [GAT1502, 1-(4-bromothiophen-2-yl)-3-(3-methyl-1-phenyl-1H-pyrazol-5-yl)urea] | much poorer activators | much poorer activators | 
9 | 155 | lacked selectivity | 17.1 ± 0.28 | less potent than GAT1508 | 3.9±1.04 | 157 | 7.02 ± 0.24 | 1.95±0.21 | Cc1cc(NC(=O)Nc2cccs2)n(-c2ccccc2)n1 [GAT1506, 1-(3-methyl-1-phenyl-1H-pyrazol-5-yl)-3-(thiophen-2-yl)urea] |  |  | 
10 |  | lack of specificity |  |  |  |  |  |  | Cc1cc(NC(=O)Nc2cnc(Br)s2)n(-c2ccccc2)n1 [GAT1530, 1-(2-bromothiazol-5-yl)-3-(3-methyl-1-phenyl-1H-pyrazol-5-yl)urea] |  |  | 
